From patent US9915647B2 (priority 2011, dated 2018)

Tested on: INS1E cells
Type: cell-based, rat

Question: `C[C@@H]1CC[C@@]2(OC1)O[C@H]1[C@@H](O)[C@H]3[C@@H]4CC[C@H]5C[C@@H](O[C@@H]6O[C@H](CO)[C@H](O[C@@H]7O[C@H](CO)[C@@H](O)[C@H](O[C@@H]8OC[C@@H](O)[C@H](O)[C@H]8O)[C@H]7O[C@@H]7O[C@H](CO)[C@H](O)[C@H](O[C@@H]8O[C@H](CO)[C@@H](O)[C@H](O)[C@H]8O)[C@H]7O)[C@H](O)[C@H]6O)[C@H](O)C[C@]5(C)[C@H]4CC[C@]3(C)[C@H]1[C@@H]2C` [digitonin] was tested. Which “digitonin concentration giving maximal and sustained ADP-stimulated respiration” value did it give?
Answer: 0.01%

Question: How did the “portion of ADP stimulated respiration that is oligomycin sensitive” value turn out when `CC[C@H]1/C=C/C=C/C[C@@H](C)[C@H](O)[C@@](C)(O)C(=O)[C@@H](C)[C@H](O)[C@@H](C)C(=O)[C@@H](C)[C@H](O)[C@@H](C)/C=C/C(=O)O[C@@H]2[C@H](C)[C@H](CC1)O[C@]1(CC[C@H](C)[C@H](C[C@@H](C)O)O1)[C@H]2C` [oligomycin] was run?
Answer: ~75%
